Laboratory results taken from patent publication US8304452B2, “Radical scavenger and active oxygen eliminating agent” (InBiotex Inc., priority 2005, dated 2012).

Tested on: human LDL
Experiment: Lipid peroxide-suppressing action: CuSO4-induced LDL oxidation, TBARS assay (Example 1)
Format: biochemical
Details: 0.2 mg/mL LDL + 5 μM CuSO4, 37° C., 3 hours, mean, n=2
Description: As an action of capturing free group (free radical-scavenging action), the effect of N-β-alanyl-5-S-glutathionyl-3,4-dihydroxyphenylalanine (5-S-GAD) on LDL oxidation was examined. As controls, dopamine and Carnosine (under trade name; N-acetylcarnosine as the ingredient name) used as eye drops for cataract were used. LDL was prepared by a fractionation and centrifugation method. A fraction at a specific gravity of 1.019 to 1.063 g/mL in serum was defined as human LDL. 5 μM CuSO4, 5-S-GAD (3 to 100 μM) and N-acetyl-carnosine (100 μM to 10 mM) or L-carnosine (10 μM to 10 mM) were added to 0.2 mg/mL LDL, for incubation at 37° C. for 3 hours. After termination of the incubation, TBARS (a substance reactive with thiobarbituric acid) was assayed. Although the TBA reaction is a non-specific reaction, the reaction is used for a method of assaying various lipid peroxide products including malone dialdehyde. An experiment of peroxidation with copper sulfate was done twice (N=2). An aqueous solution containing 3.75 mg/mL thiobarbituric acid (TBA), 150 mg/mL trichloroacetic acid (TCA) and 0.25 N hydrochloric acid (HCl) was prepared as the TBA reagent, while tetramethoxypropane was used to prepare standard solutions (2, 5, 10, 20, 40 μM). 100 μL each of an LDL sample or a standard solution was added together with 200 μL of the TBA reagent into an Eppendorf tube (1.5 mL), which was then sealed with a cap for thorough mixing. After heating at 95° C. for 15 minutes, the resulting mixture was cooled in water and centrifuged at 3000 rpm for 5 minutes. The supernatant was assayed of the absorbance (535 nm). Based on the absorbance of the standard solutions, a standard curve was prepared. Based on the standard curve, the amount of TBARS in the LDL sample was calculated (in nmol/mg LDL protein) (mean, n=2, see Table 1 and FIG. 1).

## NCCc1ccc(O)c(O)c1 [dopamine, reference compound]
10 μM added
  Amount of TBARS: 58.853 nmol/mg LDL protein
30 μM added
  Amount of TBARS: 4.454 nmol/mg LDL protein
100 μM added
  Amount of TBARS: 4.208 nmol/mg LDL protein
